Columns and labels:
[1] = test system: IL1β-induced IL8 release in THP1 cells; assay: IRAK IL8 secretion functional assay; format: cell-based; conditions: Homo sapiens; THP-1 cells, IL1β 100 ng/ml overnight, IL8 by HTRF; read-out: IC50, Secretion THP-1/IL-β induced IL8 release
From the text: IRAK IL8 Secretion Functional Assay:
THP1 cells are human monocytes derived from acute monocytic leukemia. IL1β receptor expressed on the surface membrane of THP1 cells induced IL8 release. IRAKs are kinase signaling downstream of TLRs and TNF, IL-18, IL-33 and IL-1 receptors.
In cells, IRAK4 is upstream of IRAK1.
The Human IL8 Kit, provided by CysBio International based in Bagnols/Cèze FR, allows for the quantitative determination of IL-8 in cell-culture supernatants.
Anti-cytokine IL8 antibodies are respectively labeled with europium Cryptate and XL665. Upon their binding to IL-8 molecules, the two antibodies come into close proximity, allowing FRET (Fluorescence Resonance Energy Transfer) to occur. This FRET increases proportionally to IL-8 concentrations and be converted in IL8 pg amounts.
THP-1 cells are seeded on Day 1 in 384 well plate with RPMI 1640 at a density of 30 000 cells/well. Compounds 4×/2% DMSO (range of concentrations from 20 μM to 1 nM) and IL1β 4× at 100 ng/ml final are added to cells overnight at 37° C., 5% CO2. Measurement of IL-8 secretion is done by mixing on Day2 10 μl of supernatant with 10 μl of a mix solution of europium Cryptate and XL665 (v:v) as described by supplier.
HTRF (homogeneous time resolved fluorescence) signal is measured after 3 hours incubation time at 30° C. with a BMG Pherastar reader or equivalent.

IRAK1/4 human = test system: T1, IRAK1/4 human; assay: IRAK1/4 phosphorylation IC50 (enzymatic assay, table 2); format: biochemical; conditions: human IRAK1/4 phosphorylation
T1 construct: fused on or other part: His tag and TEV cleavage site at the N-terminus
Summary of the method: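 Inhibition values are IC50s. They come from 384-well reactions in which His-TEV-tagged human IRAK-1 or IRAK-4 (the latter with STK1-biotin peptide) met ATP and compounds in DMSO at 20 µM to 1 nM. The buffer was 50 mM Hepes pH7.0 containing MgCl2, DTT, EGTA and BSA, and incubation lasted 2 or 3 hours.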

SMILES	IC50 [1] [nM]	IC50 (IRAK1/4 human) [nM]
Cc1ccc2[nH]nc(-c3cn(-c4ccc(CN5CCN(C)CC5)cc4)nn3)c2c1 [Example 9, 5-methyl-3-(1-{4-[(4-methylpiperazin-1-yl)methyl]phenyl}-1H-1,2,3-triazol-4-yl)-1H-indazole]	100 to 1000	1000 to 5000
O=C(NCc1ccc(-n2cc(-c3n[nH]c4ccccc34)nn2)cc1)c1ccncc1 [Example 15, N-{4-[4(1H-indazol-3-yl]-1H-1,2,3-triazol-1-yl)benzyl}isonicotinamide]	100 to 1000	1000 to 5000
O=C(CCc1ccc(-n2cc(-c3n[nH]c4ccccc34)nn2)cc1)N1CCOCC1 [Example 22, 3-{1-[4-(3-morpholin-4-yl-3-oxopropyl)phenyl]-1H-1,2,3-triazol-4-yl}-1H-indazole]	100 to 1000	1000 to 5000
O=C(CCc1ccc(-n2cc(-c3n[nH]c4ccccc34)nn2)cc1)N1CCCC1 [Example 23, 3-{1-[4-(3-oxo-3-pyrrolidin-1-ylpropyl)phenyl]-1H-1,2,3-triazol-4-yl}-1H-indazole]	100 to 1000	1000 to 5000
Cc1ccc2[nH]nc(-c3cn(-c4ccc(C(=O)N5CCOCC5)cc4)nn3)c2c1 [Example 32, 5-methyl-3-{1-[4-(morpholin-4-ylcarbonyl)phenyl]-1H-1,2,3-triazol-4-yl}-1H-indazole]	100 to 1000	100 to 1000
COc1cc(-n2cc(-c3n[nH]c4ccccc34)nn2)ccc1C(=O)N1CCOCC1 [Example 34, 3-{1-[3-methoxy-4-(morpholin-4-ylcarbonyl)phenyl]-1H-1,2,3-triazol-4-yl}-1H-indazole]	100 to 1000	1000 to 5000
CN(C)C(=O)c1ccc(-n2cc(-c3n[nH]c4ccccc34)nn2)cc1 [Example 36, 4-[4-(1H-indazol-3-yl)-1H-1,2,3-triazol-1-yl]-N,N-dimethylbenzamide]	100 to 1000	100 to 1000
COCC1CCN(C(=O)c2ccc(-n3cc(-c4n[nH]c5ccccc45)nn3)cc2)CC1 [Example 37, 3-[1-(4-{[4-(methoxymethyl)piperidin-1-yl]carbonyl}phenyl)-1H-1,2,3-triazol-4-yl]-1H-indazole]	100 to 1000	100 to 1000
Cc1cnccc1-c1ccc(-n2cc(-c3n[nH]c4ccccc34)nn2)cc1 [Example 290]	–	100 to 1000
CC(=O)Nc1ccc(-c2ccc(-n3cc(-c4n[nH]c5ccccc45)nn3)cc2)cn1 [Example 291]	–	100 to 1000
O=C(c1ccc(-n2cc(-c3n[nH]c4ccc(CN5CC(O)C5)cc34)nn2)cc1)N1CCOCC1 [Example 292]	–	100 to 1000
Cc1ccc2c(-c3cn(-c4ccc(CN5CC6CCC(C5)O6)cc4)nn3)n[nH]c2c1 [Example 293]	–	100 to 1000
c1ccc2c(-c3cn(-c4ccc(-c5cnn(C6CCNCC6)c5)cc4)nn3)n[nH]c2c1 [Example 294]	–	100 to 1000
O=C(c1ccc(-n2cc(-c3n[nH]c4ccc(CNCc5cccc(O)c5)cc34)nn2)cc1)N1CCOCC1 [Example 295]	–	100 to 1000
O=C(c1ccc(-n2cc(-c3n[nH]c4cc(C(F)(F)F)ccc34)nn2)cc1)N1CCOCC1 [Example 296]	–	100 to 1000
FC(F)(F)c1ccc2c(-c3cn(-c4ccc(CN5CCOCC5)cc4)nn3)n[nH]c2c1 [Example 297]	–	1000 to 5000
FC(F)(F)c1ccc2c(-c3cn(-c4ccc(C5CCNCC5)cc4)nn3)n[nH]c2c1 [Example 299]	–	100 to 1000

The next lines start with the values.

IC50 [1] [nM]	IC50 (IRAK1/4 human) [nM]	SMILES
100 to 1000	100 to 1000	CCN1CCC[C@@H]1CNC(=O)c1ccc(-n2cc(-c3n[nH]c4ccc(C)cc34)nn2)cc1 [Example 3, N-{[(2R)-1-ethylpyrrolidin-2-yl]methyl}-4-[4-(5-methyl-1H-indazol-3-yl)-1H-1,2,3-triazol-1-yl]benzamide]
100 to 1000	100 to 1000	CCN1CCC[C@H]1CNC(=O)c1ccc(-n2cc(-c3n[nH]c4ccc(C)cc34)nn2)cc1 [Example 4, N-{[(2S)-1-ethylpyrrolidin-2-yl]methyl}-4-[4-(5-methyl-1H-indazol-3-yl)-1H-1,2,3-triazol-1-yl]benzamide]
100 to 1000	100 to 1000	Cc1ccc2[nH]nc(-c3cn(-c4ccc(CN5CCCC5)cc4)nn3)c2c1 [Example 6, 5-methyl-3-{1-[4-(pyrrolidin-1-ylmethyl)phenyl]-1H-1,2,3-triazol-4-yl}-1H-indazole]
100 to 1000	100 to 1000	CNCc1ccc(-n2cc(-c3n[nH]c4ccc(C)cc34)nn2)cc1 [Example 8, N-methyl-1-{4-[4-(5-methyl-1H-indazol-3-yl)-1H-1,2,3-triazol-1-yl]phenyl}methanamine]
100 to 1000	100 to 1000	Cc1ccc2[nH]nc(-c3cn(-c4ccc(CN(C)C)cc4)nn3)c2c1 [Example 10, N,N-dimethyl-1-{4-[4-(5-methyl-1H-indazol-3-yl)-1H-1,2,3-triazol-1-yl]phenyl}methanamine]
100 to 1000	100 to 1000	Cc1ccc2[nH]nc(-c3cn(-c4ccc(CN5CCNCC5)cc4)nn3)c2c1 [Example 11, 5-methyl-3-{1-[4-(piperazin-1-ylmethyl)phenyl]-1H-1,2,3-triazol-4-yl}-1H-indazole]
100 to 1000	100 to 1000	O=C(Cc1ccc(-n2cc(-c3n[nH]c4ccccc34)nn2)cc1)N1CCCC1 [Example 19, 3-{1-[4-(2-oxo-2-pyrrolidin-1-ylethyl)phenyl]-1H-1,2,3-triazol-4-yl}-1H-indazole]
100 to 1000	100 to 1000	COc1cc(-n2cc(-c3n[nH]c4ccccc34)nn2)ccc1C(=O)N(C)C [Example 25, 4-[4-(1H-indazol-3-yl)-1H-1,2,3-triazol-1-yl]-2-methoxy-N,N-dimethylbenzamide]
100 to 1000	100 to 1000	O=C(c1ccc(-n2cc(-c3n[nH]c4ccccc34)nn2)cc1)N1CCC(O)C1 (centres unmarked) [Example 26, 1-{4-[4-(1H-indazol-3-yl)-1H-1,2,3-triazol-1-yl]benzoyl}pyrrolidin-3-ol]
100 to 1000	100 to 1000	CN(C)C1CCN(C(=O)c2ccc(-n3cc(-c4n[nH]c5ccccc45)nn3)cc2)C1 (centres unmarked) [Example 27, 1-{4-[4-(1H-indazol-3-yl)-1H-1,2,3-triazol-1-yl]benzoyl}-N,N-dimethylpyrrolidin-3-amine]
100 to 1000	100 to 1000	O=C(c1ccc(-n2cc(-c3n[nH]c4ccccc34)nn2)cc1)N1CCC(CO)CC1 [Example 28, (1-{4-[4-(1H-indazol-3-yl)-1H-1,2,3-triazol-1-yl]benzoyl}piperidin-4-yl)methanol]
100 to 1000	100 to 1000	CN(C)CC1CCCN(C(=O)c2ccc(-n3cc(-c4n[nH]c5ccccc45)nn3)cc2)C1 (centres unmarked) [Example 29, 1-(1-{4-[4-(1H-indazol-3-yl)-1H-1,2,3-triazol-1-yl]benzoyl}piperidin-3-yl)-N,N-dimethylmethanamine]
100 to 1000	100 to 1000	CN1CCC(NC(=O)c2ccc(-n3cc(-c4n[nH]c5ccccc45)nn3)cc2)C1=O (centres unmarked) [Example 31, 4-[4-(1H-indazol-3-yl)-1H-1,2,3-triazol-1-yl]-N-(1-methyl-2-oxopyrrolidin-3-yl)benzamide]
100 to 1000	< 100	O=C(c1ccc(-n2cc(-c3n[nH]c4ccccc34)nn2)cc1)N1CCCC1 [Example 35, 3-{1-[4-(pyrrolidin-1-ylcarbonyl)phenyl]-1H-1,2,3-triazol-4-yl}-1H-indazole]
